# In US20120202885A1, “METHODS, ASSAYS AND COMPOSITIONS FOR TREATING RETINOL-RELATED DISEASES” (ReVision Therapeutics, Inc., priority 2004, published 2012):
# Tests used:
# ABCA4 null mutant mice [1] = test: HPR given i.p. to ABCA4 null mutant mice for 28 days: serum retinol, ocular retinoids and A2E; type: in vivo
# Procedure: In order to explore the role of HPR in the visual cycle, the in vivo effects of HPR in mice have been examined. Thus, HPR was administered to ABCA4 null mutant mice (5-20 mg/kg, i.p. in DMSO) for periods of 28 days. Control mice received only the DMSO vehicle. At the end of the treatment period, the concentrations of retinol and HPR in serum and retinoid content in ocular tissues was measured. […] Thus, the calculated percent reduction for each of the measured retinoids, and A2E, was nearly identical (see FIG. 2).
# Genetic crosses of RBP4^−/− mice with ABCA4^−/− mice was undertaken to examine the role of RBP in mediation of retinol levels in serum and ocular tissue.
# [2] = 14-day HPR dose response on serum retinol (LC/MS of serum extract); type: in vivo, mice; conditions: abca4 null mutant, mouse, serum, intraperitoneal; 20 mg/kg HPR; read-out: steady state concentration of HPR in serum
# Procedure: (§1) Initial studies began by examining the effect of HPR on serum retinol. Animals were divided into three groups and given either DMSO, 10 mg/kg HPR, or 20 mg/kg HPR for 14 days. At the end of the study period, blood was collected from the animals, sera were prepared and an acetonitrile extract of the serum was analyzed by reverse phase LC/MS. UV-visible spectral and mass/charge analyses were performed to confirm the identity of the eluted peaks. Sample chromatograms obtained from these analyses are shown: FIG. 7a.—extract from an abca4 null mutant mouse receiving HPR vehicle, DMSO; FIG. 7b.—10 mg/kg HPR; FIG. 7c.—20 mg/kg HPR. […] For 20 mg/kg HPR, serum retinol is decreased 72%, see FIG. 8. The steady state concentrations of retinol and HPR in serum (at 20 mg/kg HPR) were determined to be 2.11 μM and 1.75 μM, respectively.
# abca4 null mutant mouse = test: as above; type: in vivo, mice; conditions: DMSO, 10 or 20 mg/kg HPR, 14 days
# Procedure: as §1
# ABCA4 null mutant mice [3] = test: 28-day HPR dose study: serum retinol, A2PE-H2, A2E, retinoids, retinal physiology and histology; type: in vivo
# Procedure: ABCA4 null mutant mice were given the indicated dose of HPR in DMSO (i.p.) daily for 28 days (n=4 mice per dosage group). At the end of the study period, blood samples were taken and serum was prepared. Following acetonitrile precipitation of serum proteins, the concentrations of retinol and HPR were determined from the soluble phase by LC/MS (see FIG. 8). Identity of the eluted compounds was confirmed by UV-vis absorption spectroscopy and co-elution of sample peaks with authentic standards.
# Group averages from the data shown in panels A-G of FIG. 13 in Example 25 (28 day time points) are plotted to illustrate the strong correlation between increases in serum HPR and decreases in serum retinol (see FIG. 14). Reductions in serum retinol are highly correlated with reductions in A2E and precursor compounds (A2PE-H2). A pronounced reduction in A2PE-H2 in the 2.5 mg/kg dosage group (−47%) is observed when the serum retinol reduction is only 20%. The reason for this disproportionate reduction is related to the inherently lower ocular retinoid content in this group of 2-month old animals compared to the other groups. It is likely that if these animals had been maintained on the 2.5 mg/kg dose for a more prolonged period, a greater reduction in A2E would also be realized.
# Panels D-F of FIG. 15 are electrophysiological measurements of rod function (panel D), rod and cone function (panel E) and recovery from photobleaching (panel F).
# ABCA4 null mutant mice were given the indicated dose of HPR in DMSO or DMSO alone daily for 28 days (n=16 mice per treatment group). At study onset, mice in the 2.5 mg/kg group were 2 months of age, mice in the other treatment groups were 3 months of age. At the indicated times, representative mice were taken from each group (n=4) for analysis of A2E precursor compounds (see FIG. 13, A2PE-H2, panels A, C and E) and A2E (see FIG. 13, panels B, D and F). Eyes were enucleated, hemisected and lipid soluble components were extracted from the posterior pole by chloroform/methanol-water phase partitioning. Sample extracts were analyzed by LC. Identity of the eluted compounds was confirmed by UV-vis absorption spectroscopy and co-elution of sample peaks with authentic standards. Note: limitations in appropriately age and strain-matched mice in the 10 mg/kg group prevented analysis at the 14-day interval.
# Treatment conditions are as described above.
# ABCA4−/− mice = test: Drug holiday after 28 days of HPR: A2E and precursors in eyecup extracts (HPLC); type: in vivo; conditions: for A2E and precursor (A2PE-H2 and A2PE) levels: 10 mg/kg 28 days
# Procedure: HPR (10 mg/kg in DMSO) was administered to ABCA4−/− mice daily for a period of 28 days. Control ABCA4−/− mice received only DMSO for the same period. […] Importantly, the observed reductions in lipofuscin autofluorescence persist long after cessation of HPR therapy. HPR (10 mg/kg), or DMSO, administration was discontinued following 28 days of treatment and re-evaluated A2E and precursor levels after 2 weeks and after 4 weeks.
# We examined eyecup extracts by HPLC and employed detection by absorbance and fluorimetry. Identity of the indicated peaks was confirmed by on-line spectral analysis and by co-elution with authentic standards. […] Further, the A2E and precursor (A2PE-H2 and A2PE) levels after a […] or 28-day drug holiday remained at or near the levels immediately following 28 days of treatment (i.e., ca. 50% reduction relative to control), although after the 28-day drug holiday, the amount of A2E and precursor (A2PE-H2 and A2PE) had increased by a few percentage points relative to the 12-day drug holiday levels. […] It is clear that peak fluorescence tracks with the abundance of A2E, A2PE and A2PE-H2.
# [4] = target: interaction of TTR with RBP (Homo sapiens, UniProt P02753); conditions: Malpeli et al., Holven et al.; cited from earlier work
# [5] = 5-20 mg/kg, i.p. in DMSO, 28 days
smiles,measurement,setting,value
"CC1=C(/C=C/C(C)=C/C=C/C(C)=C/C(=O)Nc2ccc(O)cc2)C(C)(C)CCC1 [HPR, N-(4-hydroxyphenyl)retinamide]",ocular retinoids and A2E,ABCA4 null mutant mice [1]; [5],commensurate reductions in ocular retinoids and A2E
same,serum retinol as a function of increasing serum HPR,ABCA4 null mutant mice [1]; [5],Profound reductions in serum retinol
same,reduction in serum RBP-retinol,ABCA4 null mutant mice [1]; administered dose 10 mg/kg,50-60%
same,inhibition of LRAT activity,ABCA4 null mutant mice [1]; mice receiving acute and chronic doses,has not been observed
same,concentration at 14 days,[2],1750 nM
same,"serum retinol, dose dependence",abca4 null mutant mouse,dose-dependent reduction in serum retinol
same,reduction in A2PE-H2,"ABCA4 null mutant mice [3]; 2.5 mg/kg dosage group, 28 days",−47%
same,electrophysiology: recovery from photobleaching,ABCA4 null mutant mice [3]; 10 mg/kg daily for 28 days,delayed dark adaptation
same,regeneration of visual chromophore,ABCA4 null mutant mice [3]; 10 mg/kg daily for 28 days,does not affect regeneration of visual chromophore
same,retinal morphology by light microscopy,ABCA4 null mutant mice [3]; 28 days,No aberrant morphology or compromise of the integrity in retinal cyto structure was observed
same,level of autofluorescence versus wild type,"ABCA4 null mutant mice [3]; abcr null mutant mice, 28 days",comparable to that of an age-matched wild-type animal
same,lipofuscin autofluorescence in the RPE,"ABCA4 null mutant mice [3]; abcr null mutant mice, 28 days",significantly reduces lipofuscin autofluorescence
same,A2PE-H2 and A2E during the study period,ABCA4 null mutant mice [3]; indicated doses daily for 28 days,dose-dependent reductions
same,serum retinol,ABCA4 null mutant mice [3]; summary statement,potently and reversibly reduces serum retinol
same,A2E and precursor (A2PE-H2 and A2PE) levels,ABCA4−/− mice; then 12-day drug holiday,remain significantly reduced relative to control mice
same,A2E and precursor (A2PE-H2 and A2PE) levels,ABCA4−/− mice; then 28-day drug holiday,remain significantly reduced relative to control mice
same,detection of HPR or HPR metabolites in the eyes,ABCA4−/− mice; 28-day drug holiday,unable to detect
same,reduction of A2E and precursors relative to control,"ABCA4−/− mice; immediately following 28 days of treatment, level held after 12- or 28-day drug holiday",ca. 50%
same,interaction of TTR with RBP,[4],interferes with the normal interaction of TTR with RBP
